Results as given in patent publication US8475772B2, “Peptide-based oral care surface reagents for personal care” (E I du Pont de Nemours and Company, priority 2003, dated 2013).
“And” between values parts separate entries of the source, which are not always exact repeats. Identical values can stand only once. Where no end group is shown, it is not given here.

Columns and labels:
[1] = Phage ELISA on hair surfaces; format: binding, human; settings: for Hair A450: phage clone on hair, 37° C. 15 min, anti-M13 HRP, mean of at least three replicates
Description: (§1) Enzyme-linked immunosorbent assay (ELISA) was used to evaluate the hair-binding specificity of selected phage-peptide clones. Phage-peptide clones identified in Examples 1 and 2 along with a randomly chosen control G-F9, KHGPDLLRSAPR (given as SEQ ID NO:63) were amplified. More than 10^14 pfu phages were added to pre-blocked hair surfaces.
(§2) A unique hair or pig skin-bottom 96-well apparatus was created by applying one layer of Parafilm® under the top 96-well block of a Minifold I Dot-Blot System (Schleicher & Schuell, Inc., Keene, N.H.), adding hair or a layer of hairless pig skin on top of the Parafilm® cover, and then tightening the apparatus. For each clone to be tested, the hair-covered well was incubated for 1 h at room temperature with 200 μL of blocking buffer, consisting of 2% non-fat dry milk (Schleicher & Schuell, Inc.) in TBS. A second Minifold system with pig skin at the bottom of the wells was treated with blocking buffer simultaneously to serve as a control. The blocking buffer was removed by inverting the systems and blotting them dry with paper towels. The systems were rinsed 6 times with wash buffer consisting of TBST-0.05%. The wells were filled with 200 μL of TBST-0.5% containing 1 mg/mL BSA and then 10 μL (over 10^12 copies) of purified phage stock was added to each well. The samples were incubated at 37° C. for 15 min with slow shaking. The non-binding phage was removed by washing the wells 10 to 20 times with TBST-0.5%. Then, 100 μL of horseradish peroxidase/anti-M13 antibody conjugate (Amersham USA, Piscataway, N.J.), diluted 1:500 in the blocking buffer, was added to each well and incubated for 1 h at room temperature. The conjugate solution was removed and the wells were washed 6 times with TBST-0.05%. TMB substrate (200 μL), obtained from Pierce Biotechnology (Rockford, Ill.) was added to each well and the color was allowed to develop for between 5 to 30 min, typically for 10 min, at room temperature. Then, stop solution (200 μL of 2 M H2SO4) was added to each well and the solution was transferred to a 96-well plate and the A450 was measured using a microplate spectrophotometer (Molecular Devices, Sunnyvale, Calif.). The resulting absorbance values, reported as the mean of at least three replicates, and the standard error of the mean (SEM) are given in Table 10.

[2] = Phage ELISA on pig skin surfaces (specificity control); format: binding; settings: for Pig Skin A450: phage clone on pig skin, 37° C. 15 min, anti-M13 HRP, mean of at least three replicates
Description: as §1, §2

[3] = Titer-based phage binding assay on normal hair; parameters: species or system human; settings: output pfu retained by 10 mg normal hair; input 10^14 pfu of phage clone; acid-eluted phage
Description: Phage clones displaying specific peptides were used for comparing the binding characteristics of different peptide sequences. A titer-based assay was used to quantify the phage binding. This assay measures the output pfu retained by 10 mg of hair surfaces, having a signal to noise ratio of 10^3 to 10^4. The input for all the phage clones was 10^14 pfu. It should be emphasized that this assay measures the peptide-expressing phage particle, rather than peptide binding.
Normal hairs were cut into 0.5 cm lengths and 10 mg of the cut hair was placed in each well of a 96-well filter plate (Qiagen). Then, the wells were filled with blocking buffer containing 1 mg/mL BSA in TBST-0.5% and incubated for 1 h at 4° C. The hairs were washed 5 times with TBST-0.5%. The wells were then filled with 1 mL of TBST-0.5% containing 1 mg/mL BSA and then purified phage clones (10^14 pfu) were added to each well. The hair samples were incubated for 15 min at room temperature and then washed 10 times with TBST-0.5%. The hairs were transferred to a clean well and 1.0 mL of a non-specific elution buffer, consisting of 1 mg/mL BSA in 0.2 M Glycine-HCl at pH 2.2, was added to each well. The samples were incubated for 10 min and then 160 μL of neutralization buffer (1 M Tris-HCl, pH 9.2) was added to each well. The eluted phages from each well were transferred to a new tube for titering and sequencing analysis.
To titer the bound phages, the eluted phage was diluted with SM buffer to prepare 10-fold serial dilutions of 10^1 to 10^8. A 10 μL aliquot of each dilution was incubated with 200 μL of mid-log phase E. coli ER2738 (New England BioLabs), and grown in LB medium for 20 min and then mixed with 3 mL of agarose top (LB medium with 5 mM MgCl2, and 0.7% agarose) at 45° C. This mixture was spread onto a LB medium/IPTG/Xgal plate (LB medium with 15 g/L agar, 0.05 g/L IPTG, and 0.04 g/L Xgal) and incubated overnight at 37° C.

[4] = MB50 ELISA of biotinylated peptides on pig skin; format: binding; settings: for EC50: Substrate Pig Skin, biotinylated peptide with C-terminal amidated cysteine; for binding affinity for skin (in words): pig skin
Description: (§3) Hair-binding and skin-binding peptides were synthesized by Syn Pep Inc. (Dublin, Calif.). The peptides were biotinylated by adding a biotinylated lysine residue at the C-terminus of the amino acid binding sequences for detection purposes and an amidated cysteine was added to the C-terminus of the sequence.
(§4) For hair samples, the procedure used was as follows. The setup of the surface specific 96-well system used was the same as that described in Example 5. Briefly, the 96-wells with hair or pig skin surfaces were blocked with blocking buffer (SUPERBLOCK™ from Pierce Chemical Co., Rockford, Ill.) at room temperature for 1 h, followed by six washes with TBST-0.5%, 2 min each, at room temperature. Various concentrations of biotinylated, binding peptide were added to each well, incubated for 15 min at 37° C., and washed six times with TBST-0.5%, 2 min each, at room temperature. Then, streptavidin-horseradish peroxidase (HRP) conjugate (Pierce Chemical Co.) was added to each well (1.0 μg per well), and incubated for 1 h at room temperature. After the incubation, the wells were washed six times with TBST-0.5%, 2 min each at room temperature. Finally, the color development and the measurement were performed as described in Example 5.
For the measurement of MB50 of the peptide-skin complexes, the following procedure was used. First, the pigskin was treated to block the endogenous biotin in the skin. This was done by adding streptavidin to the blocking buffer. After blocking the pigskin sample, the skin was treated with D-biotin to block the excess streptavidin binding sites. The remaining steps were identical to those used for the hair samples.
(§5) The results were plotted as A450 versus the concentration of peptide using GraphPad Prism 4.0 (GraphPad Software, Inc., San Diego, Calif.).

[5] = MB50 ELISA of biotinylated peptides on hair; format: binding, human; settings: for EC50: biotinylated peptide with C-terminal amidated cysteine; for binding affinity for hair (in words): respective substrate hair
Description: as §3, §4, §5

[6] = Peptide competition ELISA on normal hair; format: binding, human
Description: The purpose of this Example was to test the peptide binding site specificity and affinity of the hair-binding peptide D21 using a competition ELISA. The ELISA assay only detects phage particles that remain bound to the hair surface.
The synthetic hair-binding peptide D21, given as SEQ ID NO:46, was synthesized by SynPep (Dublin, Calif.). As a control, an unrelated synthetic skin-binding peptide, given as SEQ ID NO:61, was added to the system. The experimental conditions were similar to those used in the ELISA method described in Example 5. Briefly, 100 μL of Binding Buffer (1×TBS with 0.1% Tween®20 and 1 mg/mL BSA) and 10^11 pfu of the pure D21 phage particles were added to each well of the 96-well filter plate, which contained a sample of normal hair. The synthetic peptide (100 μg) was added to each well (corresponding to concentration of 0.8 mM). The reactions were carried out at room temperature for 1 h with gentle shaking, followed by five washes with TBST-0.5%. The remaining steps were identical to the those used in the ELISA method described in Example 5. Each individual ELISA test was performed in triplicate; the values in Table 11 are the means of the triplicate determinations.

[7] = Fiber friction test, high load, against chromed steel wire; parameters: species or system human; settings: normal force 0.74 g
Description: (§6) IL) in distilled water. The aqueous solution was mixed at 7000 rpm for 4 min using a Silverson […] High Shear Laboratory Mixer (Silverson Machines, Inc., East Longmeadow, Mass.) with a general purpose disintegrating head and a 0.95 cm mini-micro tubular frame. A 0.5% solution of Dow Corning® 929 Cationic Emulsion (Dow Corning Corp., Midland, Mich.), a commercial conditioning agent, in distilled water was prepared using identical mixing conditions. European dark brown hair swatches (International Hair Importers and Products) were cleaned before testing by immersing in isopropanol for 30 min, then washing 10 times with distilled water. Single hair fibers from these swatches were sent to Textile Research Institute (TRI), Princeton, N.J., for friction testing. […] Frictional force measurements of treated hair fibers were measured by the Interfiber friction test using a single-fiber friction apparatus, as described by […] et al. (J. Appl. Polymer Sci., 85:394-414 (2002)). Hair fibers were evaluated at high normal forces (high load) (0.74 g) against a chromed steel wire, crosshead speed of 1 mm/min, using an Instron Tensile Testing machine. Low normal forces (low load) (8.5 mg) were measured against another single hair fiber using the TRI/ScanTM Surface Force Analyzer (Textile Research Institute). […]

[8] = Interfiber friction test, low load, against another single hair fiber; parameters: species or system human; settings: mean of fibers; normal force 8.5 mg
Description: as §6

Substance | Hair A450 [1] | Pig Skin A450 [2] | Phage Titer [3] | other results
LGIPQNL [Clone D39] | 0.685 | 0.086 | – | –
TAATTSP [Clone B1] | 0.42 | 0.127 | – | –
GPHDTSSGGVRPNLHHTSKKEKRENRKVPFYSHSVTSRGNV (Hair-binding peptide) [Clone D5] | 0.652 | 0.104 | 1.67 × 10^8 | –
TPFHSPENAPGS [SEQ ID NO: 61] | – | – | – | EC50 [4]: 700 nM; binding affinity for skin (in words) [4]: high
SLNWVTIPGPKI (Hair-binding peptide) [Clone C10] | 0.542 | 0.032 | – | –
MPLYYLQ [Clone E] | – | – | 1.70 × 10^5 | –
TDMQAPTKSYSN (Hair-binding peptide) [Clone C5] | 0.548 | 0.047 | – | –
NSPGYQADSVAIG (Hair-binding peptide) [Clone D30] | 0.414 | 0.287 | – | –
TPPELLHGDPRS [Clone I-B5] | – | – | – | EC50 ([5]; Substrate Normal and Bleached Hair): 300 nM; binding affinity for hair (in words) [5]: high; EC50 [4]: > 100000 nM; binding affinity for skin (in words) [4]: relatively low
KHPTYRQ [Clone H] | – | – | 1.30 × 10^6 | –
EQISGSLVAAPW (Hair-binding peptide) [Clone A5] | 0.431 | 0.256 | – | –
LPRIANTWSPS [Clone F35] | – | – | – | EC50 ([5]; Substrate Bleached Hair): 3000 nM; binding affinity for hair (in words) [5]: high
TPALDGLRQPLR (Hair-binding peptide) [Clone C18] | 0.34 | 0.132 | – | –
AKTHKHPAPSYS (Hair-binding peptide) [Clone C13] | 0.375 | 0.024 | – | –
HPMSAPR (Hair-binding peptide) [Clone I] | – | – | 1.17 × 10^6 | –
KHGPDLLRSAPR (Control peptide) [Clone G-F9, reference compound] | 0.074 | −0.137 | – | –
MHAHSIA [Clone A36] | 0.585 | 0.173 | – | –
HIKPPTR [Clone B] | – | – | 1.21 × 10^5 | –
DLHTVYH [Clone A] | – | – | 7.50 × 10^4 | –
MPKYYLQ [Clone J] | – | – | 1.24 × 10^6 | –
HLTVPWRGGGSAVPFYSHSQITLPNH (Hair-binding peptide) [Clone F] | – | – | 1.11 × 10^6 | –
HPVWPAI [Clone D] | – | – | 8.20 × 10^4 | –
RTNAADHPAAVT [Clone D21] | 1.051 | 0.04 | – | EC50 ([5]; Substrate Normal Hair): 2000 nM; binding affinity for hair (in words) [5]: high; A450 ([6]; 10^11 pfu D21 phage on normal hair, synthetic peptide 100 μg per well (0.8 mM), mean of triplicate): 1.878; competition with phage clone D21 for hair binding sites (in words) ([6]; synthetic peptide 0.8 mM): does compete with the phage clone D21 for the same binding sites on the hair surface; selectivity for hair compared to pig skin ([1]; phage ELISA hair vs pig skin): highest selectivity for hair; binding affinity for hair (in words) ([1]; phage ELISA, versus control G-F9): very strong affinity for hair; EC50 [4]: 40000 nM; binding affinity for skin (in words) [4]: relatively low; affinity for pig skin (in words) ([2]; phage ELISA): very low affinity for pig skin
Conditioner: SEQ ID NO:46 covalently linked to behenyl alcohol; tested at 0.25% with 1.5% lecithin in water (RTNAADHPAAVT; also: covalently linked to behenyl alcohol, site not given here) | – | – | – | Friction Force Ff, High Load, Mean ([7]; mean of fibers): 0.055 g; Friction Force Ff, High Load ([7]; single fibers 1-4): 0.041 g and 0.057 g and 0.070 g and 0.051 g; Friction Force Ff, Low Load, Mean [8]: 0.304 mg
